From patent US20020137929A1, “1 - (3-heterocyclylphenyl) isothiourea, -isourea, -guanidine and -amidine herbicidal agents” (Intellectual Property Department, BASF Aktiengesellschaft, priority 1998, published 2002)

How the values were obtained:
[1] = test system: IPOHE (Morningglory, Ivyleaf); test: Postemergence herbicidal evaluation; type: in vivo, Ipomoea hederacea; conditions: for IPOHE herbicidal rating: postemergence
How it was run: (§1)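 Visual 0-9 injury score (stand, vigor, malformation, size, chlorosis, appearance vs untreated) taken four to five weeks post-spray, averaged across repeat tests. Test plants about two weeks old; foliar spray of acetone/water (1:1) with 0.5% surfactant delivering ~0.0156-0.500 kg active/ha.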

[2] = test system: ZEAMX (Corn, Field); test: Preemergence herbicidal evaluation; type: in vivo, Zea mays; conditions: rated 4-5 weeks after treatment; for ZEAMX rating: preemergence, 0-9 scale
How it was run: (§2)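 Seeds were planted in potting soil in cups, then sprayed preemergence with the test compound in aqueous acetone at about 0.0156 to 0.500 kg per hectare. Cups were kept under greenhouse conditions and visually rated 4–5 weeks after treatment on a 0–9 scale against an untreated control.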

[3] = test system: IPOHE (Morningglory, Ivyleaf); test: Preemergence herbicidal evaluation; type: in vivo, Ipomoea hederacea; conditions: rated 4-5 weeks after treatment; for IPOHE rating: preemergence, 0-9 scale
How it was run: as §2

[4] = test system: ECHCG (Barnyardgrass); test: Preemergence herbicidal evaluation; type: in vivo, Echinochloa crus-galli; conditions: rated 4-5 weeks after treatment; for ECHCG rating: preemergence, 0-9 scale
How it was run: as §2

[5] = test system: GALAP (Galium); test: Postemergence herbicidal evaluation; type: in vivo, Galium aparine; conditions: for GALAP herbicidal rating: postemergence
How it was run: as §1

[6] = test system: MOOVA (Monochoria); test: Preemergence weed control under flooded paddy conditions; type: in vivo, Monochoria vaginalis; conditions: rated 3-4 weeks after treatment
How it was run: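 Visual injury scored 0-9 against control three to four weeks post-treatment, greenhouse-grown. Application: acetone/water (50/50) solutions dosed directly into flood water (1.5-3 cm over silt loam, planted top 0.5 cm), roughly 0.0313 to 0.500 kg/ha active ingredient.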

[7] = test system: SETVI (Foxtail, Green); test: Postemergence herbicidal evaluation; type: in vivo, Setaria viridis; conditions: for SETVI herbicidal rating: postemergence
How it was run: as §1

[8] = test system: CYPIR (Rice Flatsedge); test: Preemergence weed control under flooded paddy conditions; type: in vivo, Cyperus iria; conditions: rated 3-4 weeks after treatment
How it was run: (§3)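 Silt loam, seeds in top 0.5 cm; flood held 1.5-3 cm; test cpd as acetone/water 50/50 into flood water, ~0.0313-0.500 kg/ha a.i.; greenhouse 3-4 wk; visual 0-9 score vs control.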

[9] = test system: TRZAWR (Wheat, Winter, cv Riband); test: Postemergence herbicidal evaluation; type: in vivo, Triticum aestivum; conditions: for TRZAWR herbicidal rating: postemergence
How it was run: as §1

[10] = test system: ECHORC (Watergrass (Calif.)); test: Postemergence weed control under flooded paddy conditions; type: in vivo, Echinochloa oryzoides; conditions: postemergence weeds
How it was run: (§4)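 Containers holding 3–5 cm weeds and rice at 1.5–2.5 leaves are flooded to 1.5–3 cm above soil. Compound in 50/50 v/v aqueous/acetone is then added directly to the water, about 0.0313–0.500 kg/ha. Plants are kept in the greenhouse and rated 0–9 visually at 3–4 weeks.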

[11] = test system: ABUTH (Velvetleaf); test: Preemergence herbicidal evaluation; type: in vivo, Abutilon theophrasti; conditions: rated 4-5 weeks after treatment; for ABUTH rating: preemergence, 0-9 scale
How it was run: as §2

[12] = test system: SETVI (Foxtail, Green); test: Preemergence herbicidal evaluation; type: in vivo, Setaria viridis; conditions: rated 4-5 weeks after treatment; for SETVI rating: preemergence, 0-9 scale
How it was run: as §2

[13] = test system: SAGPY (Arrowhead (Pygmaea)); test: Postemergence weed control under flooded paddy conditions; type: in vivo, Sagittaria pygmaea; conditions: postemergence weeds
How it was run: as §4

[14] = test system: ECHORC (Watergrass (Calif.)); test: Preemergence weed control under flooded paddy conditions; type: in vivo, Echinochloa oryzoides; conditions: rated 3-4 weeks after treatment
How it was run: as §3

[15] = rate 0.0313 kg/ha, 3-4 weeks after treatment
[16] = rate 0.0625 kg/ha, 3-4 weeks after treatment
[17] = rate 0.1250 kg/ha, 3-4 weeks after treatment
[18] = rate 0.2500 kg/ha, 3-4 weeks after treatment
[19] = Rate 0.0313 kg/ha, rated 3 to 4 weeks after treatment
[20] = Rate 0.0625 kg/ha, rated 3 to 4 weeks after treatment
[21] = Rate 0.1250 kg/ha, rated 3 to 4 weeks after treatment
[22] = Rate 0.2500 kg/ha, rated 3 to 4 weeks after treatment

For `Cn1c(C(F)(F)F)cc(=O)n(-c2cc(N=C3SCC(=O)N3[C@@H](Cc3ccccc3)C(=O)O)c(Cl)cc2F)c1=O` [Compound 53, α-Benzyl-2-{{2-chloro-5-[3,6-dihydro-3-methyl-2,6-dioxo-4-(trifluoromethyl)-1(2H)-pyrimidinyl]-4-fluorophenyl}imino}-4-oxo-3-thiazolidineacetic acid, L-], the “Postemergence herbicidal rating IPOHE” value ([1]; Rate 0.0158 kg/ha) was 9.0, the “Postemergence herbicidal rating IPOHE” value ([1]; Rate 0.0315 kg/ha) was 9.0 and the “Postemergence herbicidal rating IPOHE” value ([1]; Rate 0.0630 kg/ha) was 9.0. The “Preemergence herbicidal rating ZEAMX” value ([2]; rate 0.0313 kg/ha) was 1.0, the “Preemergence herbicidal rating ZEAMX” value ([2]; rate 0.0625 kg/ha) was 1.0 and the “Preemergence herbicidal rating ZEAMX” value ([2]; rate 0.1250 kg/ha) was 5.0. The “Preemergence herbicidal rating ZEAMX” value ([2]; rate 0.2500 kg/ha) was 6.0, the “Preemergence herbicidal rating IPOHE” value ([3]; rate 0.0313 kg/ha) was 0.0 and the “Preemergence herbicidal rating IPOHE” value ([3]; rate 0.0625 kg/ha) was 9.0. For the same compound, the “Preemergence herbicidal rating IPOHE” value ([3]; rate 0.1250 kg/ha) was 9.0, the “Preemergence herbicidal rating IPOHE” value ([3]; rate 0.2500 kg/ha) was 9.0 and the “Preemergence herbicidal rating ECHCG” value ([4]; rate 0.0313 kg/ha) was 1.0. The “Preemergence herbicidal rating ECHCG” value ([4]; rate 0.0625 kg/ha) was 4.0, the “Preemergence herbicidal rating ECHCG” value ([4]; rate 0.1250 kg/ha) was 7.0 and the “Preemergence herbicidal rating ECHCG” value ([4]; rate 0.2500 kg/ha) was 9.0. For the same compound, the “Postemergence herbicidal rating GALAP” value ([5]; Rate 0.0158 kg/ha) was 3.0, the “Postemergence herbicidal rating GALAP” value ([5]; Rate 0.0315 kg/ha) was 7.0 and the “Postemergence herbicidal rating GALAP” value ([5]; Rate 0.0630 kg/ha) was 9.0. For the same compound, the “Herbicidal rating MOOVA” value ([6]; 0.0313 kg/ha) was 2.0, the “Herbicidal rating MOOVA” value ([6]; 0.0625 kg/ha) was 2.0 and the “Herbicidal rating MOOVA” value ([6]; 0.1250 kg/ha) was 9.0. For the same compound, the “Herbicidal rating MOOVA” value ([6]; 0.2500 kg/ha) was 9.0, the “Postemergence herbicidal rating SETVI” value ([7]; Rate 0.0158 kg/ha) was 6.0 and the “Postemergence herbicidal rating SETVI” value ([7]; Rate 0.0315 kg/ha) was 6.0. The “Postemergence herbicidal rating SETVI” value ([7]; Rate 0.0630 kg/ha) was 7.0, the “Herbicidal rating CYPIR” value ([8]; 0.0313 kg/ha) was 2.0 and the “Herbicidal rating CYPIR” value ([8]; 0.0625 kg/ha) was 2.0. The “Herbicidal rating CYPIR” value ([8]; 0.1250 kg/ha) was 9.0, the “Herbicidal rating CYPIR” value ([8]; 0.2500 kg/ha) was 9.0 and the “Postemergence herbicidal rating TRZAWR” value ([9]; Rate 0.0158 kg/ha) was 2.5. The “Postemergence herbicidal rating TRZAWR” value ([9]; Rate 0.0315 kg/ha) was 3.0, the “Postemergence herbicidal rating TRZAWR” value ([9]; Rate 0.0630 kg/ha) was 4.0 and the “Herbicidal rating ECHORC” value [10, 15] was 0.0. The “Herbicidal rating ECHORC” value [10, 16] was 0.0, the “Herbicidal rating ECHORC” value [10, 17] was 2.0 and the “Herbicidal rating ECHORC” value [10, 18] was 3.0. For the same compound, the “Preemergence herbicidal rating ABUTH” value ([11]; rate 0.0313 kg/ha) was 7.0, the “Preemergence herbicidal rating ABUTH” value ([11]; rate 0.0625 kg/ha) was 9.0 and the “Preemergence herbicidal rating ABUTH” value ([11]; rate 0.1250 kg/ha) was 9.0. The “Preemergence herbicidal rating ABUTH” value ([11]; rate 0.2500 kg/ha) was 9.0, the “Preemergence herbicidal rating SETVI” value ([12]; rate 0.0313 kg/ha) was 1.0 and the “Preemergence herbicidal rating SETVI” value ([12]; rate 0.0625 kg/ha) was 4.0. The “Preemergence herbicidal rating SETVI” value ([12]; rate 0.1250 kg/ha) was 7.0, the “Preemergence herbicidal rating SETVI” value ([12]; rate 0.2500 kg/ha) was 9.0 and the “Herbicidal rating SAGPY” value [13, 15] was 0.0. The “Herbicidal rating SAGPY” value [13, 16] was 0.0, the “Herbicidal rating SAGPY” value [13, 17] was 0.0 and the “Herbicidal rating SAGPY” value [13, 18] was 0.0. The “Herbicidal rating ECHORC” value ([14]; 0.0313 kg/ha) was 0.0, the “Herbicidal rating ECHORC” value ([14]; 0.0625 kg/ha) was 0.0 and the “Herbicidal rating ECHORC” value ([14]; 0.1250 kg/ha) was 2.0. For the same compound, the “Herbicidal rating ECHORC” value ([14]; 0.2500 kg/ha) was 3.0.

Compound `COC(=O)CC1SC(=Nc2cc(-n3c(=O)cc(C(F)(F)F)n(C)c3=O)c(F)cc2Cl)N(C)C1=O` (stereo not shown) [Compound 88, Methyl 2-{{2-chloro-5-[3,6-dihydro-3-methyl-2,6-dioxo-4-(trifluoromethyl)-1(2H)-pyrimidinyl]-4-fluorophenyl}imino}-3-methyl-4-oxo-5-thiazolidineacetate] has an IPOHE herbicidal rating ([1]; rate 0.0158 kg/ha) of 9.0, an IPOHE herbicidal rating ([1]; rate 0.0315 kg/ha) of 9.0 and an IPOHE herbicidal rating ([1]; rate 0.0630 kg/ha) of 9.0. The ZEAMX rating ([2]; 0.0156 kg/ha) was 0.0, the ZEAMX rating ([2]; 0.0313 kg/ha) was 0.0 and the ZEAMX rating ([2]; 0.0625 kg/ha) was 0.0. The ZEAMX rating ([2]; 0.1250 kg/ha) was 6.0, the ZEAMX rating ([2]; 0.2500 kg/ha) was 8.0 and the IPOHE rating ([3]; 0.0156 kg/ha) was 0.0. It also gave an IPOHE rating ([3]; 0.0313 kg/ha) of 0.0, an IPOHE rating ([3]; 0.0625 kg/ha) of 0.0 and an IPOHE rating ([3]; 0.1250 kg/ha) of 9.0. The IPOHE rating ([3]; 0.2500 kg/ha) was 9.0, the ECHCG rating ([4]; 0.0156 kg/ha) was 0.0 and the ECHCG rating ([4]; 0.0313 kg/ha) was 0.0. For the same compound, the ECHCG rating ([4]; 0.0625 kg/ha) was 0.0, the ECHCG rating ([4]; 0.1250 kg/ha) was 0.0 and the ECHCG rating ([4]; 0.2500 kg/ha) was 2.0. It also gave a GALAP herbicidal rating ([5]; rate 0.0158 kg/ha) of 4.0, a GALAP herbicidal rating ([5]; rate 0.0315 kg/ha) of 4.0 and a GALAP herbicidal rating ([5]; rate 0.0630 kg/ha) of 4.0. The “MOOVA herbicidal effect rating” value ([6]; 0.0313 kg/ha) was 9.0, the “MOOVA herbicidal effect rating” value ([6]; 0.0625 kg/ha) was 9.0 and the “MOOVA herbicidal effect rating” value ([6]; 0.1250 kg/ha) was 9.0. The “MOOVA herbicidal effect rating” value ([6]; 0.2500 kg/ha) was 9.0, the SETVI herbicidal rating ([7]; rate 0.0158 kg/ha) was 9.0 and the SETVI herbicidal rating ([7]; rate 0.0315 kg/ha) was 9.0. For the same compound, the SETVI herbicidal rating ([7]; rate 0.0630 kg/ha) was 9.0, the “CYPIR herbicidal effect rating” value ([8]; 0.0313 kg/ha) was 0.0 and the “CYPIR herbicidal effect rating” value ([8]; 0.0625 kg/ha) was 0.0. For the same compound, the “CYPIR herbicidal effect rating” value ([8]; 0.1250 kg/ha) was 0.0, the “CYPIR herbicidal effect rating” value ([8]; 0.2500 kg/ha) was 0.0 and the TRZAWR herbicidal rating ([9]; rate 0.0158 kg/ha) was 5.5. The TRZAWR herbicidal rating ([9]; rate 0.0315 kg/ha) was 7.0, the TRZAWR herbicidal rating ([9]; rate 0.0630 kg/ha) was 7.5 and the “Herbicidal rating ECHORC” value [10, 19] was 6.0. For the same compound, the “Herbicidal rating ECHORC” value [10, 20] was 6.0, the “Herbicidal rating ECHORC” value [10, 21] was 6.0 and the “Herbicidal rating ECHORC” value [10, 22] was 7.0. It also gave an ABUTH rating ([11]; 0.0156 kg/ha) of 9.0, an ABUTH rating ([11]; 0.0313 kg/ha) of 9.0 and an ABUTH rating ([11]; 0.0625 kg/ha) of 9.0. It also gave an ABUTH rating ([11]; 0.1250 kg/ha) of 9.0, an ABUTH rating ([11]; 0.2500 kg/ha) of 9.0 and an SETVI rating ([12]; 0.0156 kg/ha) of 0.0. It also gave an SETVI rating ([12]; 0.0313 kg/ha) of 0.0, an SETVI rating ([12]; 0.0625 kg/ha) of 3.0 and an SETVI rating ([12]; 0.1250 kg/ha) of 7.0. For the same compound, the SETVI rating ([12]; 0.2500 kg/ha) was 9.0, the “Herbicidal rating SAGPY” value [13, 19] was 6.0 and the “Herbicidal rating SAGPY” value [13, 20] was 9.0. The “Herbicidal rating SAGPY” value [13, 21] was 9.0, the “Herbicidal rating SAGPY” value [13, 22] was 9.0 and the “ECHORC herbicidal effect rating” value ([14]; 0.0313 kg/ha) was 6.0. The “ECHORC herbicidal effect rating” value ([14]; 0.0625 kg/ha) was 6.0, the “ECHORC herbicidal effect rating” value ([14]; 0.1250 kg/ha) was 6.0 and the “ECHORC herbicidal effect rating” value ([14]; 0.2500 kg/ha) was 7.0.
